Measurements taken from patent US11760978B2, “Cell culture medium for culturing organoid, culture method, and organoid” (KEIO UNIVERSITY, priority 2016, dated 2023).

Tested on: epithelial tumor cells derived from colon tumor
Test: Subculturing (long-term culturing) of epithelial tumor cells derived from colon tumor, Example 4
Format: cell-based, human
Details: SB202190 10 μM in medium, oxygen 20%
Procedure: “WIFNRA medium”, “W^AfmIFNRA medium” and “WENRAS” medium were prepared using the same method as in section (2) of Example 4. In addition, recombinant human R-spondin 1 (R&D Systems) was added to commercially available Advanced DMEM/F-12 medium (Thermo Fisher Scientific) to a final concentration of 1 μg/mL followed by the addition noggin (Peprotech) to a final concentration of 100 ng/mL and A83-01 (Tocris) to a final concentration of 500 nM. Moreover, a medium was prepared in which the Wnt3a-afamin complex prepared in (1) above was added to a final concentration 300 ng/mL, IGF1 (Biolegend) was added to a final concentration of 100 ng/mL, FGF2 (Peprotech) was added to a final concentration of 50 ng/mL, and […] (Sigma-Aldrich) was added to a final concentration of 10 μM (and the resulting medium may be referred to as “W^AfmIFNRAS medium”).
Epithelial tumor cells were obtained using the same method as in section (2) of Example 1. Next, the epithelial tumor cells were seeded in a 48-well plate together with 25 μL of Matrigel® (BD Bioscience). The “WIFNRA medium”, “W^MmIFNRA medium”, “WENRAS medium” and “WAfmIFNRAS medium” prepared in (2) above were added in 250 μL aliquots to the wells seeded with epithelial tumor cells followed by culturing at 37° C. and oxygen concentration of 20%. The medium was replaced every two days from the start of culturing. […]

In the case of `Oc1ccc(-c2nc(-c3ccncc3)c(-c3ccc(F)cc3)[nH]2)cc1` [SB202190, 4-(4-fluorophenyl)-2-(4-hydroxyphenyl)-5-(4-pyridyl)-1H-imidazole], the “toxicity to epithelial tumor cells” value is reported as “exhibited toxicity”.
